Laboratory results taken from US12065445B2, “CDK2 inhibitors and methods of using the same” (Cedilla Therapeutics, Inc., priority 2021, dated 2024).

Tested on: Kuramochi cells labeled with mApple-H2B
Experiment: IncuCyte Cell Proliferation Assay
Format: cell-based
Details: 72 h
Method: IncuCyte® assay was used to measure the effect of disclosed compounds on cell proliferation. Fluorescent microscopy images of cells were taken immediately after compound treatment and 72 hours later. Image analysis software was used to obtain cell counts as a function of compound concentration. Kuramochi cells labeled with mApple-H2B were seeded on 384-well assay-ready plates. Plates were placed in an IncuCyte® (Sartorius) and scanned at 0 and 72 hours. IncuCyte® software was used to count the number of fluorescent nuclei in each well. The fold change in cell count from 0 to 72 hours in wells treated with increasing compounds concentrations (10 pts, ½ log dilution, 20 μM top concentration) was normalized to DMSO control wells. The normalized cell counts were fit with dose response curves and a […] was calculated.

| Structure (SMILES) | IC50 |
| --- | --- |
| C[C@@H](OCC1CCC(F)(F)CC1)[C@H](NC(=O)C1CN(C(=O)c2cncs2)CC12CN(C(=O)[C@H]1CC1(C)C)C2)C(=O)N1CCC(OC(F)(F)F)CC1 (some centres unmarked) [I-394] | ≤ 0.5 µM |
| C[C@@H](OC(C)(C)C1CCCCC1)[C@H](NC(=O)[C@@H]1CN(C(=O)c2cncs2)CC12CN(C(=O)[C@H]1CC1(C)C)C2)C(=O)N1CCCCC1 [I-395] | 0.5 to 5 µM |
| CNC(=O)[C@@H](NC(=O)[C@@H]1CN(C(=O)c2cnn(Cc3ccccc3)c2)CC12CN(C(=O)[C@H]1CC1(C)C)C2)C1(OCC2CCCCC2)CC1 [I-396] | 0.5 to 5 µM |
| C[C@@H](OCC1CCC(F)(F)CC1)[C@H](NC(=O)[C@@H]1CN(C(=O)c2cncs2)CC12CN(C(=O)[C@H]1CC1(C)C)C2)C(=O)N1CCC(CO)CC1 [I-397] | 0.5 to 5 µM |
| C[C@@H](OCc1ccc(Cl)cc1)[C@@H](CO)NC(=O)[C@@H]1CN(C(=O)c2cncs2)CC12CN(C(=O)[C@H]1CC1(C)C)C2 [I-404] | > 20 µM |
| Cc1ccc(CNC(=O)[C@@H]2CN(C(=O)c3cnc(Cc4ccccc4)s3)CC23CN(C(=O)[C@H]2CC2(C)C)C3)nn1 [I-405] | > 20 µM |
| COC[C@H]1CCCN(C(=O)[C@@H](NC(=O)[C@@H]2CN(C(=O)c3cncs3)CC23CN(C(=O)[C@H]2CC2(C)C)C3)[C@@H](C)OC[C@H]2CC[C@@H](OC)CC2)C1 [I-408] | 0.5 to 5 µM |
| C[C@@H](OCc1ccccc1)[C@H](NC(=O)[C@@H]1CN(C(=O)c2cnn(Cc3ccccc3)c2)CC12CN(C(=O)[C@H]1CC1(C)C)C2)C(=O)N(C)C [I-409] | 0.5 to 5 µM |
| CNC(=O)C(NC(=O)[C@@H]1CN(C(=O)c2cncs2)CC12CN(C(=O)C(C)(C)C1CC1)C2)c1cccc(C2CCCCC2)n1 (stereo partly drawn) [I-410, (8S)—N-(1-(6-cyclohexylpyridin-2-yl)-2-(methylamino)-2-oxoethyl)-2-(2-cyclopropyl-2-methylpropanoyl)-6-(thiazole-5-carbonyl)-2,6-diazaspiro[3.4]octane-8-carboxamide] | 0.5 to 5 µM |
| CNC(=O)C(NC(=O)[C@@H]1CN(C(=O)c2cncs2)CC12CN(C(=O)[C@H]1CC1(C)C)C2)c1cccc(C2CCC(F)(F)CC2)n1 (some centres unmarked) [I-411] | > 20 µM |
| C[C@@H](OCC1CC(F)(F)C1)[C@@H](CO)NC(=O)[C@@H]1CN(C(=O)c2cncs2)CC12CN(C(=O)[C@H]1CC1(C)C)C2 [I-412] | > 20 µM |
| CNC(=O)[C@@H](NC(=O)[C@@H]1CN(C(=O)c2cnn(Cc3ccccc3)c2)CC12CN(C(=O)[C@H]1CC1(C)C)C2)[C@@H](C)OC[C@H]1CC[C@H](O)CC1 [I-413] | > 20 µM |
| CC1(C)C[C@@H]1C(=O)N1CC2(CN(C(=O)c3cncs3)C[C@H]2C(=O)NCc2cccc(C3CCCCC3)n2)C1 [I-414] | 0.5 to 5 µM |
| C[C@@H](OCc1ccccc1)[C@H](NC(=O)[C@@H]1CN(C(=O)c2cncs2)CC12CN(C(=O)[C@H]1CC1(C)C)C2)C(=O)N(C)C [I-416] | 5 to 20 µM |
| Cc1ccc(CNC(=O)[C@@H]2CN(C(=O)c3cnn(Cc4ccccn4)c3)CC23CN(C(=O)[C@H]2CC2(C)C)C3)nn1 [I-417] | > 20 µM |
| Cc1ccc(CNC(=O)[C@@H]2CN(C(=O)c3cnn(Cc4ccncc4)c3)CC23CN(C(=O)[C@H]2CC2(C)C)C3)nn1 [I-418] | > 20 µM |
| CC1(C)C[C@@H]1C(=O)N1CC2(CN(C(=O)c3cncs3)C[C@H]2C(=O)NC(CO)c2cccc(C3CCC(F)(F)CC3)n2)C1 (some centres unmarked) [I-419] | > 20 µM |
| CNC(=O)C(NC(=O)[C@@H]1CN(C(=O)c2cncs2)CC12CN(C(=O)[C@H]1CC1(C)C)C2)c1ccc(C)nn1 (some centres unmarked) [I-420] | > 20 µM |
| CNC(=O)C(NC(=O)[C@@H]1CN(C(=O)c2cnn(Cc3ccccc3)c2)CC12CN(C(=O)[C@H]1CC1(C)C)C2)c1ccc(C)nn1 (some centres unmarked) [I-421] | > 20 µM |
| CC(C)(O)C(NC(=O)[C@@H]1CN(C(=O)c2cncs2)CC12CN(C(=O)[C@H]1CC1(C)C)C2)c1cccc(C2CCOCC2)n1 (some centres unmarked) [I-423] | > 20 µM |
| COC[C@H]1CCCN(C(=O)[C@@H](NC(=O)[C@@H]2CN(C(=O)c3cncs3)CC23CN(C(=O)C(C)(C)C2CC2)C3)[C@@H](C)OC[C@H]2CC[C@H](O)CC2)C1 [I-431] | > 20 µM |
| COC[C@H]1CCCN(C(=O)[C@@H](NC(=O)[C@@H]2CN(C(=O)c3cncs3)CC23CN(C(=O)[C@H]2CC2(C)C)C3)[C@@H](C)OC[C@H]2CC[C@H](N)CC2)C1 [I-433] | > 20 µM |
| COC[C@H]1CCCN(C(=O)[C@@H](NC(=O)[C@@H]2CN(C(=O)c3cncs3)CC23CN(C(=O)[C@H]2CC2(C)C)C3)[C@@H](C)OC[C@H]2CC[C@H](NC(C)=O)CC2)C1 [I-434] | > 20 µM |
| COC[C@H]1CCCN(C(=O)[C@@H](NC(=O)[C@@H]2CN(C(=O)c3cncs3)CC23CN(C(=O)[C@H]2CC2(C)C)C3)[C@@H](C)OC[C@H]2CC[C@H](OC(F)(F)F)CC2)C1 [I-435] | 0.5 to 5 µM |

| Structure (SMILES) | IC50 |
| --- | --- |
| CC(C)(O)C(NC(=O)[C@@H]1CN(C(=O)c2cnco2)CC12CN(C(=O)[C@H]1CC1(C)C)C2)c1cccc(C2CCOCC2)n1 (some centres unmarked) [I-436] | > 20 µM |
| Cc1nc(C)c(C(=O)N2C[C@@H](C(=O)NC(c3cccc(C4CCOCC4)n3)C(C)(C)O)C3(C2)CN(C(=O)[C@H]2CC2(C)C)C3)s1 (some centres unmarked) [I-437] | > 20 µM |
| C[C@@H](OCC1CCCCC1)[C@H](NC(=O)[C@@H]1CN(C(=O)c2cnn(Cc3ccccc3)c2)CC12CN(C(=O)[C@H]1CC1(C)C)C2)C(=O)N1CCC(c2cnc[nH]2)CC1 [I-438] | 0.5 to 5 µM |
| C[C@@H](OCC1CCCCC1)[C@H](NC(=O)[C@@H]1CN(C(=O)c2cnn(Cc3ccccc3)c2)CC12CN(C(=O)[C@H]1CC1(C)C)C2)C(=O)N1CCC(n2cccn2)CC1 [I-439] | ≤ 0.5 µM |
| C[C@@H](OCC1CCOCC1)[C@H](NC(=O)[C@@H]1CN(C(=O)c2cncs2)CC12CN(C(=O)[C@H]1CC1(C)C)C2)C(=O)N1CCC(n2ccnc2)CC1 [I-440] | > 20 µM |
| C[C@@H](OCC1CCCCC1)[C@H](NC(=O)[C@@H]1CN(C(=O)c2cnn(Cc3ccccc3)c2)CC12CN(C(=O)[C@H]1CC1(C)C)C2)C(=O)N1CCC(c2cc[nH]n2)CC1 [I-443] | ≤ 0.5 µM |
| C[C@@H](OCC1CCC2(CCC2)CC1)[C@H](NC(=O)[C@@H]1CN(C(=O)c2cnn(Cc3ccccc3)c2)CC12CN(C(=O)[C@H]1CC1(C)C)C2)C(=O)N1CCC(c2cnc[nH]2)CC1 [I-444] | ≤ 0.5 µM |
| C[C@@H](OCC1CCCCC1)[C@H](NC(=O)[C@@H]1CN(C(=O)c2cnn(Cc3ccccc3)c2)CC12CN(C(=O)[C@H]1CC1(C)C)C2)C(=O)N1CCC(c2nccs2)CC1 [I-445] | ≤ 0.5 µM |
| C[C@@H](OCC1CCCCC1)[C@H](NC(=O)[C@@H]1CN(C(=O)c2cnn(Cc3ccccc3)c2)CC12CN(C(=O)[C@H]1CC1(C)C)C2)C(=O)N1CCC(c2ncc[nH]2)CC1 [I-446] | 0.5 to 5 µM |
| C[C@@H](OCC12CCC(CC1)OC2)[C@H](NC(=O)[C@@H]1CN(C(=O)c2cnco2)CC12CN(C(=O)C(C)(C)C1CC1)C2)C(C)(C)O [I-448] | > 20 µM |
| C[C@@H](OCC1CCCCC1)[C@H](NC(=O)[C@@H]1CN(C(=O)c2cnn(Cc3ccccc3)c2)CC12CN(C(=O)[C@H]1CC1(C)C)C2)C(=O)N1CCC(c2nnco2)CC1 [I-449] | ≤ 0.5 µM |
| C[C@@H](OCC12CCC(CC1)OC2)[C@H](NC(=O)[C@@H]1CN(C(=O)c2cnco2)CC12CN(C(=O)[C@H]1CC1(C)C)C2)C(C)(C)O [I-450] | > 20 µM |
| COC1CCN(C(=O)[C@@H](NC(=O)[C@@H]2CN(C(=O)c3sc(C)nc3C)CC23CN(C(=O)[C@H]2CC2(C)C)C3)[C@@H](C)OCC23CCC(CC2)OC3)CC1 [I-451] | 5 to 20 µM |
| C[C@@H](OCC12CCC(CC1)OC2)[C@H](NC(=O)[C@@H]1CN(C(=O)c2cncs2)CC12CN(C(=O)[C@H]1CC1(C)C)C2)C(=O)N1CCC(C)(C)CC1 [I-452] | ≤ 0.5 µM |
| C[C@@H](OCC12CCC(CC1)OC2)[C@H](NC(=O)[C@@H]1CN(C(=O)c2cncs2)CC12CN(C(=O)[C@H]1CC1(C)C)C2)C(=O)N1CCCC2(COC2)C1 [I-453] | 5 to 20 µM |
| C[C@@H](OCC12CCC(CC1)OC2)[C@H](NC(=O)[C@@H]1CN(C(=O)c2cncs2)CC12CN(C(=O)[C@H]1CC1(C)C)C2)C(=O)N1CCC(C(F)(F)F)CC1 [I-454, (S)—N-((2S,3R)-3-((2-oxabicyclo[2.2.2]octan-4-yl)methoxy)-1-oxo-1-(4-(trifluoromethyl)piperidin-1-yl)butan-2-yl)-2-((S)-2,2-dimethylcyclopropane-1-carbonyl)-6-(thiazole-5-carbonyl)-2,6-diazaspiro[3.4]octane-8-carboxamide] | 0.5 to 5 µM |
| Cc1nc(C)c(C(=O)N2C[C@@H](C(=O)N[C@H](C(=O)N3CCC(OC(F)(F)F)CC3)[C@@H](C)OCC34CCC(CC3)OC4)C3(C2)CN(C(=O)[C@H]2CC2(C)C)C3)s1 [I-455] | 0.5 to 5 µM |
| Cc1nc(C)c(C(=O)N2C[C@@H](C(=O)N[C@H](C(=O)N3CCC(C(F)(F)F)CC3)[C@@H](C)OCC34CCC(CC3)OC4)C3(C2)CN(C(=O)[C@H]2CC2(C)C)C3)s1 [I-456] | 0.5 to 5 µM |
| C[C@@H](OCC12CCC(CC1)OC2)[C@H](NC(=O)[C@@H]1CN(C(=O)c2cncs2)CC12CN(C(=O)[C@H]1CC1(C)C)C2)C(=O)N1CCC(OC(F)(F)F)CC1 [I-457] | 0.5 to 5 µM |
| C[C@@H](OCC12CCC(CC1)OC2)[C@H](NC(=O)[C@@H]1CN(C(=O)c2cncs2)CC12CN(C(=O)[C@H]1CC1(C)C)C2)C(=O)N1CCC2(CC1)CC2 [I-458] | 0.5 to 5 µM |
| [2H]C([2H])([2H])OC[C@H]1CCCN(C(=O)[C@@H](NC(=O)[C@@H]2CN(C(=O)c3cncs3)CC23CN(C(=O)C(C)(C)C2CC2)C3)[C@@H](C)OCC23CCC(CC2)OC3)C1 [I-459] | 5 to 20 µM |
| C[C@@H](OCC12CCC(CC1)OC2)[C@H](NC(=O)[C@@H]1CN(C(=O)c2cncs2)CC12CN(C(=O)[C@H]1CC1(C)C)C2)C(=O)N1CCC[C@H](COC(F)(F)F)C1 [I-460] | 0.5 to 5 µM |
| C[C@@H](OCC12CCC(CC1)OC2)[C@H](NC(=O)[C@@H]1CN(C(=O)c2cncs2)CC12CN(C(=O)[C@H]1CC1(C)C)C2)C(=O)N1CCC[C@H](COC(F)F)C1 [I-461] | 0.5 to 5 µM |
